Measured values taken from ChEMBL document CHEMBL4190165 (Medchemcomm, 2016).

Assays:
[1] = Binding affinity to yeast Hsp90 by isothermal titration calorimetric method; design: species or system Saccharomyces cerevisiae
[2] = Inhibition of Saccharomyces cerevisiae PP30 HSP82 expressed in Escherichia coli BL21(DE3)pLysS by PK/LDH coupled spectrophotometric assay

COC1=C2C[C@@H](C)C[C@H](OC)[C@H](O)[C@@H](C)/C=C(\C)[C@H](OC(N)=O)[C@@H](OC)/C=C\C=C(/C)C(=O)NC(=CC1=O)C2=O [GELDANAMYCIN]
Kd [1]: 1200 nM | IC50 [2]: 1000 to 5000 nM

C[C@@H]1C[C@H]2O[C@@H]2/C=C\C=C\C(=O)Cc2c(Cl)c(O)cc(O)c2C(=O)O1 [RADICICOL]
Kd [1]: 19 nM | IC50 [2]: 20 to 23 nM
